From patent US20200375929A1, “METHODS AND COMPOSITIONS FOR THE TREATMENT OF DISEASES ASSOCIATED WITH CANCER, INFLAMMATION, OR IMMUNE RESPONSE” (Washington University, priority 2017, published 2020)
“Also recorded” adds a separate entry of the source.

Tests used:
human CD14+ monocytes = test: Cytokine production in LPS-stimulated human monocytes (ELISA); assay type: cell-based; settings: DI 12 h, LPS 24 h
Protocol: Cytokines in cell supernatants were analyzed using DuoSet® ELISA kits according to manufacturer protocol (R&D Systems). The supernatants from BMDMs were diluted 1:4, from human blood monocytes 1:3.
Blood from healthy donors was acquired from LRS chambers supplied by the Mississippi Valley Regional Blood Center. Peripheral blood mononuclear cells (PBMCs) from buffy coats were recovered from the Ficoll interface after a 400 g centrifugation for 30 min. Monocytes were isolated by adherence on a cell culture dish for 1 h at 37° C. and 5% C02 in RPMI containing 1% Human Serum Albumin (Albutein, Grifols, Spain). After extensive washes to allow removal of non-adherent cells, monocytes (>95% purity) were harvested, counted and 5×10^5 cells were plated per well in 24-well plates. The cells were treated with DI (125 μM if not stated otherwise) for 12 h and stimulated with LPS (100 ng/mL) for 1 h or as indicated. In some experiments cells were treated with DI in presence of EtGSH (1 mM, Santa Cruz).

STAT3 [1] = test: STAT3 activation in IL17A-stimulated HaCat cells (western blot); assay type: cell-based, human; settings: DI 12 h
STAT3 [2] = test: STAT3 activation in LPS-stimulated BMDMs (western blot); assay type: cell-based, mouse
Protocol: (§1) BMDM were prepared from 6- to 12-week-old mice as described 1 and cultured in RMPI-1640 medium supplemented with 10% fetal bovine serum (FBS), 2 mM L-glutamine, and 100 U/mL penicillin-streptomycin and mouse recombinant M-CSF ([…], Peprotech). For experiments, cells were seeded at concentration 10^6 cells/mL in tissue culture plates of various formats. The cells were treated with DI (250 μM (unless stated otherwise), cat #592498, Sigma), DMF (50 μM (unless stated otherwise), cat #242926, Sigma), 3-(ethoxycarbonyl)but-3-enoic acid (3MI, 5 μM, Aris Pharmaceuticals Inc.), 4-ethoxy-2-methylene-4-oxobutanoic acid (MI, Aris Pharmaceuticals Inc.) for 12 h and activated with lipopolysaccharide (LPS; 100 ng/mL; E. coli 0111:B4, Sigma) for 1 h or as indicated. In some experiments cells were stimulated with combination of LPS (20 ng/mL) and IFN-γ (50 ng/mL; Peprotech). In some experiments cells were treated with α-tocopherol (AT, 10 μM; Sigma), MitoTEMPO (MT, 500 μM; Sigma), N-acetylcysteine (NAC, 1 mM, Sigma), ethylester of GSH (EtGSH; 1 mM, Santa Cruz) or buthionene sulfoximine (BSO, 500 μM, Sigma) alone or in combination with DI for 12 h. […]
(§2) Cells were lysed in RIPA Lysis Buffer System (Santa Cruz) and heat-denatured at 95° C. for 5 min in reducing sample buffer (BioRad). […] Non-specific binding was blocked with 5% skim milk (or 5% BSA when phospho-proteins were analyzed), and membranes were probed with primary antibodies specific to Nrf2 (#12721), HO-1 (#70081), IκBζ (mouse specific, #93726), IκBζ(#9244), ATF3 (#D2Y5W), IRAK1 (#4504; sensitivity of IRAK1 detection diminishes upon IRAK1 K63 ubiquitination), phospho-IKK (Ser176/180, #2697), p62/SQSTM1 (#5114), phospho-eIF2α (Ser51, #9721), eIF2α (#5324) from Cell Signaling; GAPDH (sc-25778), IκBα (sc-1643), ATF3 (sc-188), SDHA (sc-166909) from Santa Cruz; NQO1 (ab28947) from Abeam, followed by incubation with anti-rabbit-HRP (1:10,000; sc-2030) or anti-mouse-HRP (1:10,000; sc-2031) from Santa Cruz and Clarity western ECL substrate (Bio-Rad). […]

ATF3 = ATF3 protein expression (western blot); assay type: cell-based, mouse; settings: BMDMs, DI, also on Nrf2−/− background
Protocol: as §1, §2

HBL1 cells line (ABC) = test: DLBCL cell viability, resazurin assay, ABC subtype; assay type: cell-based; settings: HBL1, 4 days, refreshed daily; DI 125-250 μM
NFkB pathway = test: Canonical NFkB signaling in LPS-stimulated BMDMs (p65 translocation, IKK, IkBa); assay type: cell-based, mouse
Protocol: as §1, §2

C=C(CC(=O)OC)C(=O)OC [DI, dimethyl itaconate]
LPS-induced cytokine production (human CD14+ monocytes): inhibition of cytokine production | STAT3 activation (STAT3 [1]): effective to inhibit STAT3 activation | STAT3 activation (Y705 phosphorylation) (STAT3 [2]; BMDMs, 12 h pretreatment): inhibits STAT3 activation | inhibition of STAT3 activation, Nrf2 KO compared with WT (STAT3 [2]; Nrf2 KO BMDMs, DI 250 μM 12 h): no differences in extent of inhibition of STAT3 activation | ATF3 protein (ATF3): upregulated | growth / toxicity, ABC DLBCL (HBL1 cells line (ABC)): selective toxicity towards ABC | p65 nuclear translocation upon LPS (NFkB pathway; BMDMs, DI 250 μM 12 h, LPS): does not inhibit nuclear translocation of p65; also recorded: nor did it prevent LPS-mediated p65 nuclear translocation | IκBα degradation in response to LPS (NFkB pathway; BMDMs, DI, LPS): did not inhibit IκBα degradation | canonical NFkB response (NFkB pathway; DI at concentrations effective to inhibit IL6, p65 translocation, IKK activation, IkBa degradation): not affected
